Measurements reported in patent US20140005163A1 (NOVARTIS AG, priority 2010, published 2014).

How the values were obtained:
PI3K alpha = target: T1, PI3K alpha (Homo sapiens, UniProt P42336); experiment: PI3K alpha kinase assay (Kinase-Glo luminescence); type: biochemical
T1 construct: p85(iSH2) fusion partner (see partner chain) (N); His tag (C); made in house; host or cells: baculovirus; Tn5 (Trichoplusia ni) or TiniPro insect cells
Procedure, shortened: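 Read-out: Kinase-Glo luminescence of ATP left after 60 min at room temperature. Conditions: 10 nM PI3Kα (EMV B1075), 1 μM ATP, 10 μg/mL PI substrate, Tris pH 7.5 buffer with MgCl2, NaCl, CHAPS and DTT. IC50s fitted with a four-parameter logistic model.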

[1] = test system: PKB Ser473 phosphorylation in Rat1-myr-HA-p110 beta cells; experiment: Reverse protein array assay, PKB Ser473 phosphorylation in Rat1-myr-p110 beta cells; type: cell-based; details: 0.5 h, pAkt Ser473, 30 minutes incubation, read-out: p-PKB IC50
Procedure, shortened: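 Rat1 cells expressing myristoylated HA-tagged p110 alpha, beta or delta were plated for at least 20 h, then exposed to 8-step serial compound dilutions (0.2% DMSO final) for 30 min at 37 °C. Lysates were spotted at four dilutions on protein microarrays, and relative fluorescence intensity of phospho-Ser473 PKB was calculated.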

[2] = test system: S6 Ribosomal Protein phosphorylation Ser235/236 in TSC1 null mouse embryo fibroblast (MEF) cells; experiment: Reverse protein array assay, S6 Ribosomal Protein phosphorylation Ser235/236 in TSC1 null MEF cells; type: cell-based; details: 1 h, pS6 ribosomal protein Ser235/236, 60 minutes incubation, read-out: p-S6 IC50
Procedure, shortened: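 TSC1−/− MEFs, seeded and held ≥20 h at 37 °C/5% CO2, were exposed to 8-step serial compound dilutions (0.02% DMSO final; DMSO vehicle control) for 60 min at 37 °C. Cells were then lysed on ice for 10 min and lysates spotted onto reverse protein array chips.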

T1 sequence (P42336 with tags, fused parts or gaps limits assumed): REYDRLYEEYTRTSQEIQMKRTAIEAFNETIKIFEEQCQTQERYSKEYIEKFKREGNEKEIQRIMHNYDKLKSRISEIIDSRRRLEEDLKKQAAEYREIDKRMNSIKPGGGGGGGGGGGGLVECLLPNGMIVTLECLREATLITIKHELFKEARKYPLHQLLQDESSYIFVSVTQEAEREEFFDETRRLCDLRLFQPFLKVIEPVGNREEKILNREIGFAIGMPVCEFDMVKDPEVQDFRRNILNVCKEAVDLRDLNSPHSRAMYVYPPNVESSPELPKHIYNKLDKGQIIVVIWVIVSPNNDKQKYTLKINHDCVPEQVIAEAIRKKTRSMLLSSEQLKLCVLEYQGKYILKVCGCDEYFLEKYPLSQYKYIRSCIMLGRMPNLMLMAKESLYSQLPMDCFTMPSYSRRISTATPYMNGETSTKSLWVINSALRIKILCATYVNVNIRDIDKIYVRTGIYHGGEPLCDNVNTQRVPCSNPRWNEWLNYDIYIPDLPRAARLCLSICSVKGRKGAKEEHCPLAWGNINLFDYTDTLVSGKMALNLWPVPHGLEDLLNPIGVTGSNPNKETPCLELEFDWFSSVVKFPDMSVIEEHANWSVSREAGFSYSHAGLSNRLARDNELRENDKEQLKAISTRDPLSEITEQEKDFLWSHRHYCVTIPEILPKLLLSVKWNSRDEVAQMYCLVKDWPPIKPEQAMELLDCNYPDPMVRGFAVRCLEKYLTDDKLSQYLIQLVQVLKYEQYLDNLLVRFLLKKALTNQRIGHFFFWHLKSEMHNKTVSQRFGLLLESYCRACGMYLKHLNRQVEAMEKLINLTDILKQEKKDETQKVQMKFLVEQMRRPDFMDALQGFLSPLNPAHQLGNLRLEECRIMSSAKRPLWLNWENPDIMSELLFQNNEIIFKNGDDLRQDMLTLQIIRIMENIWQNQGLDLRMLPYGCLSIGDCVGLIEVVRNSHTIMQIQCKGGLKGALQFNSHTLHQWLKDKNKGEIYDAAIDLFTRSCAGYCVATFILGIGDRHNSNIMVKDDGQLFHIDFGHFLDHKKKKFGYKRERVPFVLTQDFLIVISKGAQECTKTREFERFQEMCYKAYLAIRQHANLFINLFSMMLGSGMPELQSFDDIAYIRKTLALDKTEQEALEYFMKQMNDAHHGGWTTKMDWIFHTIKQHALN

Row | Structure (SMILES) | IC50 (PI3K alpha) | IC50 [1] | IC50 [2]
1 | Cc1nn(C)cc1-n1c(=O)n(C)c2cnc3ccc(-c4cncc(C(C)O)c4)cc3c21 (racemic) [Example 217, (rac)-1-(1,3-Dimethyl-1H-pyrazol-4-yl)-8-[5-(1-hydroxy-ethyl)-pyridin-3-yl]-3-methyl-1,3-dihydro-imidazo[4,5-c]quinolin-2-one] | 8 nM | 161 nM | 10 nM
2 | COc1ccc(-c2ccc3ncc4c(c3c2)n(-c2c(C)nn(C)c2C)c(=O)n4C)cc1OC [Example 1.9, 8-(3,4-Dimethoxy-phenyl)-3-methyl-1-(1,3,5-trimethyl-1H-pyrazol-4-yl)-1,3-dihydro-imidazo[4,5-c]quinolin-2-one] | 28 nM | 113 nM | 44 nM
3 | COc1ccc(-c2ccc3ncc4c(c3c2)n(-c2ccnn2C)c(=O)n4C)cn1 [Example 2.2, 8-(6-Methoxy-pyridin-3-yl)-3-methyl-1-(2-methyl-2H-pyrazol-3-yl)-1,3-dihydro-imidazo[4,5-c]quinolin-2-one] | 62 nM | 553 nM | 
4 | COc1ccc(-c2ccc3ncc4c(c3c2)n(-c2cnn(C)c2C)c(=O)n4C)cn1 [Example 2.9, 1-(1,5-Dimethyl-1H-pyrazol-4-yl)-8-(6-methoxy-pyridin-3-yl)-3-methyl-1,3-dihydro-imidazo[4,5-c]quinolin-2-one] | 43 nM | 141 nM | 27 nM
5 | CCOc1ccc(-c2ccc3ncc4c(c3c2)n(-c2cn(C)nc2Cl)c(=O)n4C)cn1 [Example 3.8, 1-(3-Chloro-1-methyl-1H-pyrazol-4-yl)-8-(6-ethoxy-pyridin-3-yl)-3-methyl-1,3-dihydro-imidazo[4,5-c]quinolin-2-one] | 16 nM | 23 nM | 11 nM
6 | Cc1c(-n2c(=O)n(C)c3cnc4ccc(-c5ccc(N(C)C)nc5)cc4c32)cnn1C [Example 4.4, 8-(6-Dimethylamino-pyridin-3-yl)-1-(1,5-dimethyl-1H-pyrazol-4-yl)-3-methyl-1,3-dihydro-imidazo[4,5-c]quinolin-2-one] | 45 nM | 110 nM | 10 nM
7 | Cc1nn(C(C)C)cc1-n1c(=O)n(C)c2cnc3ccc(-c4cnc(N(C)C)nc4)cc3c21 [Example 6.1, 8-(2-Dimethylamino-pyrimidin-5-yl)-1-(1-isopropyl-3-methyl-1H-pyrazol-4-yl)-3-methyl-1,3-dihydro-imidazo[4,5-c]quinolin-2-one] | 29 nM | 43 nM | 33 nM
8 | Cc1nn(C)cc1-n1c(=O)n(C)c2cnc3ccc(-c4cccnc4)cc3c21 [Example 10.2, 1-(1,3-Dimethyl-1H-pyrazol-4-yl)-3-methyl-8-pyridin-3-yl-1,3-dihydro-imidazo[4,5-c]quinolin-2-one] | 16 nM | 58 nM | 24 nM
9 | CCn1cc(-n2c(=O)n(C)c3cnc4ccc(-c5ccc(CO)nc5)cc4c32)c(C)n1 [Example 16.1, 1-(1-ethyl-3-methyl-1H-pyrazol-4-yl)-8-(6-hydroxymethyl-pyridin-3-yl)-3-methyl-1,3-dihydro-imidazo[4,5-c]quinolin-2-one] | 33 nM | 34 nM | 33 nM
10 | Cc1nn(C)cc1-n1c(=O)n(C)c2cnc3ccc(-c4cncc(S(C)(=O)=O)c4)cc3c21 [Example 22, 1-(1,3-Dimethyl-1H-pyrazol-4-yl)-8-(5-methanesulfonyl-pyridin-3-yl)-3-methyl-1,3-dihydro-imidazo[4,5-c]quinolin-2-one] | 6 nM | 148 nM | 27 nM
11 | Cc1nn(CC(=O)N(C)C)c(C)c1-n1c(=O)n(C)c2cnc3ccc(-c4cnc(N)c(C(F)(F)F)c4)cc3c21 [Example 25.2, 2-{4-[8-(6-Amino-5-trifluoromethyl-pyridin-3-yl)-3-methyl-2-oxo-2,3-dihydro-imidazo[4,5-c]quinolin-1-yl]-3,5-dimethyl-pyrazol-1-yl}-N,N-dimethyl-acetamide] | 13 nM |  | 6 nM
12 | Cc1nn(C)c(C)c1-n1c(=O)n(C)c2cnc3ccc(-c4cnc(N)c(C(F)(F)F)c4)cc3c21 [Example 25.3, 8-(6-Amino-5-trifluoromethyl-pyridin-3-yl)-3-methyl-1-(1,3,5-trimethyl-1H-pyrazol-4-yl)-1,3-dihydro-imidazo[4,5-c]quinolin-2-one] | 59 nM | 73 nM | 2 nM
13 | Cc1nn(C(C)C)cc1-n1c(=O)n(C)c2cnc3ccc(-c4cnc(N)c(C(F)(F)F)c4)cc3c21 [Example 25.4, 8-(6-Amino-5-trifluoromethyl-pyridin-3-yl)-1-(1-isopropyl-3-methyl-1H-pyrazol-4-yl)-3-methyl-1,3-dihydro-imidazo[4,5-c]quinolin-2-one] | 12 nM | 7 nM | < 0.5 nM
14 | Cc1noc(C)c1-n1c(=O)n(C)c2cnc3ccc(-c4cnc(N)c(C(F)(F)F)c4)cc3c21 [Example 25.5, 8-(6-Amino-5-trifluoromethyl-pyridin-3-yl)-1-(3,5-dimethyl-isoxazol-4-yl)-3-methyl-1,3-dihydro-imidazo[4,5-c]quinolin-2-one] | 30 nM | 115 nM | 8 nM
15 | Cc1nn(C)cc1-n1c(=O)n(C)c2cnc3ccc(-c4cncnc4)cc3c21 [Example 26, 1-(1,3-Dimethyl-1H-pyrazol-4-yl)-3-methyl-8-pyrimidin-5-yl-1,3-dihydro-imidazo[4,5-c]quinolin-2-one] | 103 nM | 226 nM | 5 nM
16 | Cc1nn(C)cc1-n1c(=O)n(C)c2cnc3ccc(-c4cc(O)cc(C(F)(F)F)c4)cc3c21 [Example 34, 1-(1,3-Dimethyl-1H-pyrazol-4-yl)-8-(3-hydroxy-5-trifluoromethyl-phenyl)-3-methyl-1,3-dihydro-imidazo[4,5-c]quinolin-2-one] | 7 nM | 153 nM | 3.56 nM
17 | Cc1nn(C)cc1-n1c(=O)n(C)c2cnc3ccc(-c4cnc5[nH]ccc5c4)cc3c21 [Example 36, 1-(1,3-dimethyl-1H-pyrazol-4-yl)-3-methyl-8-(1H-pyrrolo[2,3-b]pyridin-5-yl)-1,3-dihydro-imidazo[4,5-c]quinolin-2-one] | 9 nM | 6 nM | < 0.5 nM
18 | Cc1nn(C)cc1-n1c(=O)n(C)c2cnc3ccc(-c4ccc(OCC5CC5)nc4)cc3c21 [Example 42, 8-(6-Cyclopropylmethoxy-pyridin-3-yl)-1-(1,3-dimethyl-1H-pyrazol-4-yl)-3-methyl-1,3-dihydro-imidazo[4,5-c]quinolin-2-one] | 70 nM | 66 nM | 3 nM
19 | CNC(=O)c1ccc(-c2ccc3ncc4c(c3c2)n(-c2cn(C)nc2Cl)c(=O)n4C)cc1 [Example 43.2, 4-[1-(3-Chloro-1-methyl-1H-pyrazol-4-yl)-3-methyl-2-oxo-2,3-dihydro-1H-imidazol[4,5-c]quinolin-8-yl]-N-methyl-benzamide] | 8 nM | < 5 nM | < 0.5 nM
20 | Cc1nn(C)cc1-n1c(=O)n(C)c2cnc3ccc(-c4ccc5c(c4)CCN5C)cc3c21 [Example 50, 1-(1,3-Dimethyl-1H-pyrazol-4-yl)-3-methyl-8-(1-methyl-2,3-dihydro-1H-indol-5-yl)-1,3-dihydro-imidazo[4,5-c]quinolin-2-one] | 188 nM | 119 nM | 91 nM
21 | Cc1nn(CC(=O)N(C)C)c(C)c1-n1c(=O)n(C)c2cnc3ccc(-c4ccc(-n5cccn5)cc4)cc3c21 [Example 51.4, 2-{3,5-Dimethyl-4-[3-methyl-2-oxo-8-(4-pyrazol-1-yl-phenyl)-2,3-dihydro-imidazo[4,5-c]quinolin-1-yl]pyrazol-1-yl}-N,N-dimethyl-acetamide] | 22 nM |  | 11 nM
22 | CCCOc1ccc(-c2ccc3ncc4c(c3c2)n(-c2cn(C)nc2C)c(=O)n4C)cn1 [Example 55, 1-(1,3-Dimethyl-1H-pyrazol-4-yl)-3-methyl-8-(6-propoxy-pyridin-3-yl)-1,3-dihydro-imidazo[4,5-c]quinolin-2-one] | 56 nM | 21 nM | 18 nM
23 | Cc1ncc(-c2ccc3ncc4c(c3c2)n(-c2cn(C)nc2C)c(=O)n4C)cc1N(C)S(C)(=O)=O [Example 75, N-{5-[1-(1,3-Dimethyl-1H-pyrazol-4-yl)-3-methyl-2-oxo-2,3-dihydro-1H-imidazo[4,5-c]quinolin-8-yl]-2-methyl-pyridin-3-yl}-N-methyl-methanesulfonamide] | 14 nM | 383 nM | 
24 | CCNc1cc(-c2ccc3ncc4c(c3c2)n(-c2cn(C)nc2C)c(=O)n4C)cnc1C [Example 87.1, 1-(1,3-Dimethyl-1H-pyrazol-4-yl)-8-(5-ethylamino-6-methyl-pyridin-3-yl)-3-methyl-1,3-dihydro-imidazo[4,5-c]quinolin-2-one] | 14 nM | < 5 nM | 
25 | CCn1cc(-n2c(=O)n(C)c3cnc4ccc(-c5cncc(NC)c5)cc4c32)c(C)n1 [Example 180.1, 1-(1-Ethyl-3-methyl-1H-pyrazol-4-yl)-3-methyl-8-(5-methylamino-pyridin-3-yl)-1,3-dihydro-imidazo[4,5-c]quinolin-2-one] | 41 nM | < 5 nM | 
